Key:
sciatic nerve [1] = test: Sciatic nerve block in rats: duration of thermal nociceptive (sensory) block, modified hotplate test; assay type: in vivo, rat; conditions: rat sciatic nerve injection 0.3 mL
Text: (§1) Sciatic Nerve Block and Neurobehavioral Testing. Animals were cared for in compliance with protocols approved by the Children's Hospital Animal Care and Use Committee, and the Massachusetts Institute of Technology Committee on Animal Care, which conformed to guidelines of the International Association for the Study of Pain. Adult male Sprague-Dawley rats (Charles River Laboratories) weighing 320-450 g were housed in groups, in a 6 AM to 6 PM light-dark cycle. Under brief isoflurane-oxygen anesthesia, a 23G needle was introduced postero-medial to the greater trochanter, until bone was contacted, and 0.3 mL of test solution was injected over the sciatic nerve. Thermal nociception was assessed by a modified hotplate test, and motor function via a weight-bearing test. […] Motor strength was assessed with a weight-bearing test. In brief, the animal was held over a digital balance such that it could bear weight with 1 hind paw at a time. The maximum weight that it could bear was recorded. The duration of motor blockade was defined as the time for weight bearing to return halfway to normal from maximal block. The halfway point for each rat was defined as […].

sciatic nerve [2] = test: Sciatic nerve block in rats: duration of motor block, weight-bearing test; assay type: in vivo; conditions: rat sciatic nerve injection 0.3 mL
Text: as §1

PC12 cells = test: Cytotoxicity in PC12 cells; assay type: cell-based, rat; conditions: for cytotoxicity compared with ropivacaine and bupivacaine (in words): FIG. 1 / Table 2
Protocol: (§2) C2C12 Mouse myoblasts [American Type Culture Collection (ATCC) CRL-1772] were cultured to proliferate in DMEM supplemented with 20% FBS and 100 Penicillin Streptomycin. Cell culture supplies were obtained from Invitrogen, unless otherwise noted. Cells were plated at 50,000 cells per mL in DMEM with 2% horse serum and 1% Penn Strep, and left to differentiate into myotubules for 10-14 days. During differentiation, media were exchanged every 2 to 3 days. Cell viability and proliferation were studied after exposures to drugs for up to 24 h. PC12 cells (ATCC, CRL-1721) originating from rat adrenal gland pheochromocytoma were grown in 24-well tissue culture dishes (CellBind; Corning) with F-12K (ATCC) supplemented with 12.5% horse serum (Gibco), 2.5% FBS (Gibco), and 1% Penn Strep (Sigma). For neuronal induction (PC12), cells were seeded at a relative low density of 5×10^4 cells/cm2 and 50 ng/mL NGF was added 24 h after seeding. Cell viability and proliferation were evaluated as for C2C12 cells. Experiments with PC12 cells were conducted for up to 24 hours.

C2C12 Mouse myoblasts = test: Cytotoxicity in C2C12 myotubules; assay type: cell-based; conditions: C2C12 cells; for cytotoxicity compared with ropivacaine and bupivacaine (in words): FIG. 2 / Table 2
Protocol: as §2

Compound | Block Duration (min) Sensory (sciatic nerve [1]; dose conc 10 mM) | Block Duration (min) Motor (sciatic nerve [2]; dose conc 10 mM) | cytotoxicity compared with ropivacaine and bupivacaine (in words) (PC12 cells) | cytotoxicity compared with ropivacaine and bupivacaine (in words) (C2C12 Mouse myoblasts) | IC50 (PC12 cells; Rattus norvegicus, PC-12, cytotoxicity, exposure up to 24 h) | IC50 (C2C12 Mouse myoblasts; Mus musculus, cytotoxicity, exposure up to 24 h) | Block Duration (min) Sensory (sciatic nerve [1]; dose conc 15 mM) | Block Duration (min) Motor (sciatic nerve [2]; dose conc 15 mM) | Block Duration (min) Sensory (sciatic nerve [1]; dose conc 5 mM) | Block Duration (min) Motor (sciatic nerve [2]; dose conc 5 mM)
CCCC(=O)OC[N+]1(CCC)CCCC[C@H]1C(=O)Nc1c(C)cccc1C.[Cl-] (stereo in doubt) [Compound 11S, 1-((Butyryloxy)methyl)-2-((2,6-dimethylphenyl)carbamoyl)-1-propylpiperidin-1-ium chloride] | 135 ± 56 min | 90 ± 44 min | significantly less cytotoxic than ropivacaine and bupivacaine | significantly less cytotoxic than ropivacaine and bupivacaine |  |  |  |  |  | 
CCC[N@@+]1(CC(=O)NC)CCCC[C@H]1C(=O)Nc1c(C)cccc1C [Compound 26Sa, 2-((2,6-dimethylphenyl)carbamoyl)-1-(2-(methylamino)-2-oxoethyl)-1-propyl-1-piperidin-2-ylium bromide] | 180 min | 140 min | significantly less cytotoxic than ropivacaine and bupivacaine | significantly less cytotoxic than ropivacaine and bupivacaine | 1200 µM | 1000 µM |  |  |  | 
COC(=O)C[N@@+]1(C)CCCC[C@@H]1C(=O)Nc1c(C)cccc1C (racemic) [Compound 3b, 2-((2,6-Dimethylphenyl)carbamoyl)-1-(2-methoxy-2-oxoethyl)-1-methylpiperidin-1-ium bromide] | 450 ± 60 min | 300 ± 60 min |  |  |  |  |  |  |  | 
CCCN1CCCC[C@H]1C(=O)Nc1c(C)cccc1C (single isomer, unassigned) [(S)-Ropivacaine, reference compound] | 150 ± 35 min | 150 ± 38 min |  |  |  |  | 215 ± 31 min | 210 ± 28 min |  | 
Br.CC[N+](CC)(CC(=O)Nc1c(C)cccc1C)CC(=O)OC [Compound 1, 2-((2,6-Dimethylphenyl)amino)-N,N-diethyl-N-(2-methoxy-2-oxoethyl)-2-oxoethan-1-aminium bromide] |  |  | significantly less cytotoxic than ropivacaine and bupivacaine | significantly less cytotoxic than ropivacaine and bupivacaine |  |  |  |  |  | 
COC(=O)C[N@@+]1(C)CCCC[C@H]1C(=O)Nc1c(C)cccc1C (racemic) [Compound 3a, 2-((2,6-Dimethylphenyl)carbamoyl)-1-(2-methoxy-2-oxoethyl)-1-methylpiperidin-1-ium bromide] | 0 min | 0 min |  |  |  |  |  |  |  | 
CCCC[N+]1(COC(C)=O)CCCCC1C(=O)Nc1c(C)cccc1C.[Br-] (centres unmarked) [Compound 9, 1-(Acetoxymethyl)-1-butyl-2-((2,6-dimethylphenyl)carbamoyl)piperidin-1-ium bromide] | 120 ± 53 min | 75 ± 39 min |  |  |  |  | 125 ± 51 min | 85 ± 36 min | 65 ± 23 min | 25 ± 19 min

From patent US12454509B2, “Local anesthetics with selective-sensory nerve blockade” (Children's Medical Center Corporation, priority 2019, dated 2025)
